Experimental data published in paper PMC5056396, “Hexokinase I N-terminal based peptide prevents the VDAC1-SOD1 G93A interaction and re-establishes ALS cell viability” (Scientific Reports, 2016).

B1: HK1: recombinant human HK1 purchased by Sigma; in cells expressed from plasmid (protein)
chain: MIAAQLLAYYFTELKDDQVKKIDKYLYAMRLSDETLIDIMTRFRKEMKNGLSRDFNPTATVKMLPTFVRSIPDGSEKGDFIALDLGGSSFRILRVQVNHEKNQNVHMESEVYDTPENIVHGSGSQLFDHVAECLGDFMEKRKIKDKKLPVGFTFSFPCQQSKIDEAILITWTKRFKASGVEGADVVKLLNKAIKKRGDYDANIVAVVNDTVGTMMTCGYDDQHCEVGLIIGTGTNACYMEELRHIDLVEGDEGRMCINTEWGAFGDDGSLEDIRTEFDREIDRGSLNPGKQLFEKMVSGMYLGELVRLILVKMAKEGLLFEGRITPELLTRGKFNTSDVSAIEKNKEGLHNAKEILTRLGVEPSDDDCVSVQHVCTIVSFRSANLVAATLGAILNRLRDNKGTPRLRTTVGVDGSLYKTHPQYSRRFHKTLRRLVPDSDVRFLLSESGSGKGAAMVTAVAYRLAEQHRQIEETLAHFHLTKDMLLEVKKRMRAEMELGLRKQTHNNAVVKMLPSFVRRTPDGTENGDFLALDLGGTNFRVLLVKIRSGKKRTVEMHNKIYAIPIEIMQGTGEELFDHIVSCISDFLDYMGIKGPRMPLGFTFSFPCQQTSLDAGILITWTKGFKATDCVGHDVVTLLRDAIKRREEFDLDVVAVVNDTVGTMMTCAYEEPTCEVGLIVGTGSNACYMEEMKNVEMVEGDQGQMCINMEWGAFGDNGCLDDIRTHYDRLVDEYSLNAGKQRYEKMISGMYLGEIVRNILIDFTKKGFLFRGQISETLKTRGIFETKFLSQIESDRLALLQVRAILQQLGLNSTCDDSILVKTVCGVVSRRAAQLCGAGMAAVVDKIRENRGLDRLNVTVGVDGTLYKLHPHFSRIMHQTVKELSPKCNVSFLLSEDGSGKGAALITAVGVRLRTEASS

How the values were obtained:
[1] = tested on: human VDAC1 reconstituted into PLB; assay: VDAC1 channel conductance in planar lipid bilayer (PLB); assay type: biochemical; settings: for effect on single channel VDAC1 conductance: 1 M KCl, +25 mV, 0.2 μM SOD1 proteins or 15 μM peptide; for effect on voltage-dependence of VDAC1, triangular voltage ramps: symmetric 1 M KCl, ramps 0 to ±50 mV
Text: Purified VDAC1 was reconstituted into a planar phospholipid bilayer (PLB) and its channel conductance was monitored before and after addition of SOD1 proteins, on cis or trans side of the membrane. […] Moreover, the effect of SOD1 proteins on the voltage-dependence of VDAC1 was monitored by triangular voltage ramps from 0 to ±50 mV. […] The current linearly follows the voltage applied up to about ±25 mV, where VDAC1 decreases its channel conductance through step-like transitions, remaining in low-conducting states.
Under standard experimental condition (1 M KCl and an applied potential of +25 mV) the VDAC1 channel was mainly in low-conducting closed states. […] The effect of NHK1 on the channel conductance is even more evident by plotting the amplitude values obtained in the current traces as a function of the number of events. While for VDAC1 alone the amplitude values appear as a main peak corresponding to the closed states (Fig. 4B), the presence of NHK1 caused a different distribution of events: an additional, different peak corresponding to the open state was visible, together with the closed states peak (Fig. 4C). […] The effect of NHK1 on the voltage-dependence of VDAC1 was monitored by triangular voltage ramps. […] In this experiment, indeed, VDAC1 completely loose, very precociously (already at ±15 mV applied), its ability to linearly respond to the applied voltage: a continuous switch from open to closed states was observed, especially at positive potentials. […] Upon NHK1 incubation, VDAC1 current transitions at positive voltages are very noisy and pass through different sub-conductance states (Fig. 4F).
Purified VDAC1 was reconstituted into a Planar Lipid Bilayer (PLB) apparatus (Warner Instruments, Hamden, CT, USA), previously described. Bilayers were prepared using asolectin (Sigma) dissolved in decane (Sigma) containing 1% chloroform (Sigma) across a 200 μm hole in a derlin cuvette (Warner Instruments). Experiments were performed in 1 M KCl, 10 mM Hepes, pH 7.0[40][46]. Control experiments using empty membrane and/or detergents were performed to avoid activity in any of the above solutions. Data were acquired using a Bilayer Clamp amplifier (Warner Instruments) at 100 μs/point, filtered at 200 Hz and analyzed offline using Clampfit 10.4 program set (Axon Instruments, Union City, CA, USA). Single channel analysis of VDAC1 was performed in presence or not of 0.2 μM of SOD1 WT or G93A, 15 μM NHK1 or ScNHK1 peptide.

recombinant human VDAC1 [2] = assay: In vitro binding assay of SOD1 proteins to VDAC1 immobilized on Ni-NTA magnetic beads (western blot); settings: 6.25 μM SOD1, 1 h RT, n = 3
Procedure: (§1) Intact isolated mitochondria from the motor neuron-like NSC34 cells were incubated with SOD1 WT or G93A, and mitochondrial membranes were precipitated by centrifugation. […] The affinity of SOD1 proteins for VDAC1 was then studied by using an in vitro binding assay. Purified and refolded VDAC1 was immobilized on Ni-NTA magnetic beads and incubated with SOD1 proteins. Then, VDAC1-binding complexes were isolated by the application of a magnetic field. […] The VDAC1-SOD1 interaction was quantitatively assayed by Microscale Thermophoresis (MST) analysis. MST measures any variation in the thermal migration of a fluorescently labeled binding partner; changes of fluorescence in a heated spot of the protein solution is a function of increasing interacting protein concentration, and can be exploited to calculate the binding affinity coefficient (Kd). The fluorescent-labeled VDAC1 was incubated with increasing concentrations of SOD1 proteins and the changes in fluorescence monitored. […] Depletion curve was used to calculate the Kd, which was estimated 4,81 μM.
Recombinant VDAC1 was immobilized onto Ni-NTA Magnetic Agarose Beads (Qiagen) by exploiting its 6xHis-tag, according with manufacture’s protocol. […] Any protein in VDAC1-bound and -unbound fractions was evaluated by western blot. […]

[3] = tested on: intact mitochondria purified from NSC34 cells; assay: Mitochondrial binding assay of SOD1 proteins (western blot); design: species or system mouse; settings: 2 μg SOD1, 1 h RT, n = 3
Procedure: Intact isolated mitochondria from the motor neuron-like NSC34 cells were incubated with SOD1 WT or G93A, and mitochondrial membranes were precipitated by centrifugation. […] The affinity of SOD1 proteins for VDAC1 was then studied by using an in vitro binding assay. Purified and refolded VDAC1 was immobilized on Ni-NTA magnetic beads and incubated with SOD1 proteins. Then, VDAC1-binding complexes were isolated by the application of a magnetic field. […] The VDAC1-SOD1 interaction was quantitatively assayed by Microscale Thermophoresis (MST) analysis. MST measures any variation in the thermal migration of a fluorescently labeled binding partner; changes of fluorescence in a heated spot of the protein solution is a function of increasing interacting protein concentration, and can be exploited to calculate the binding affinity coefficient (Kd). The fluorescent-labeled VDAC1 was incubated with increasing concentrations of SOD1 proteins and the changes in fluorescence monitored. […]
Intact mitochondria were purified from NSC34 cells by Mitochondrial isolation kit (Miltenyi Biotech), according with manufacturer’s instructions. Isolated, intact mitochondria, in the storage buffer provided, were quantified by Lowry method. […] Proteins in mitochondrial or supernatant fraction were detected by western blot and quantified as explained in Supplementary Information. […]

recombinant human VDAC1 [4] = assay: Microscale Thermophoresis (MST) analysis of VDAC1-SOD1 interaction; assay type: binding; settings: 100 nM labeled VDAC1, SOD1 1.22 nM to 20 μM
Procedure: as §1
Microscale Thermophoresis (MST) analysis was performed using the NanoTemper Monolith NT.115 apparatus (NanoTemper Technologies, Munich, Germany) as described. VDAC1 was fluorescently-labeled using the NanoTemper protein-labeling kit Green/Blue. […]

[5] = tested on: VDAC1-SOD1 G93A interaction; assay: In vitro VDAC1-SOD1 G93A binding assay after pre-incubation with HK1 or peptide (western blot, densitometry); design: species or system human; settings: 200 μM HK1 pre-incubated 1 h, 6.25 μM SOD1 G93A; with respect to control; n = 3
Text: It is well known that HKs bind to VDAC1 in physiological conditions. We hypothesized that the available area for interaction with soluble proteins is a limited, exposed portion of the transmembrane pore VDAC1. […] For this reason, we repeated the VDAC1-SOD1 G93A binding assay, adding increasing concentrations of HK1. […] The reduction corresponds to the increase of HK1 in VDAC1-bound fraction, and it is proportional to the HK1 concentrations added in the assay (Fig. 3A).
In order to evaluate the NHK1 ability to interfere with VDAC1-SOD1 G93A interaction, a binding assay was performed. Increasing concentrations of NHK1 were added to immobilized-VDAC1, before SOD1 G93A addition. […] In fact, a 20-fold smaller concentration of peptide was used to obtain a result similar to that obtained by using the whole HK1 in the previous experiment (see Fig. 3A).
Recombinant VDAC1 was immobilized onto Ni-NTA Magnetic Agarose Beads (Qiagen) by exploiting its 6xHis-tag, according with manufacture’s protocol. For each experiment, a large excess of VDAC1 (30 μM) were incubated with 50 μL of beads suspension in Interaction Buffer (IB) (300 mM NaCl, 50 mM NaH2PO4, 20 mM imidazole, pH 8.0) to saturate all sites. Beads were collected using the magnet-based system DynaMag-2 (Life Technologies) and washed twice in Wash Buffer (300 mM NaCl, 50 mM NaH2PO4, 20 mM imidazole, 0.05% Tween-20, pH 6.3) to remove any excess of VDAC1. Beads-immobilized VDAC1 were incubated with 6.25 μM SOD1 WT or G93A, for 1 h at RT, under constant shaking, in 100 μL of IB. The assay was also performed by pre-incubating immobilized-VDAC1 for an extra 1 h with increasing concentration of purified human HK1 (0, 100, 200 μM) or NHK1 peptide (0, 5, 10, 25 μM), before SOD1 G93A addition. Beads were recovered using Dyna-Mag2 system and VDAC1-complexes were eluted from beads using 50 μL of Elution Buffer (300 mM NaCl, 50 mM NaH2PO4, 300 mM imidazole, pH 3.5). Any protein in VDAC1-bound and -unbound fractions was evaluated by western blot. Three independent experiments were performed for each condition tested.

NSC34-SOD1G93A cells = assay: Mitochondrial membrane potential (ΔΨm) by flow cytometry; assay type: cell-based, mouse; settings: NSC34-SOD1G93A expressing HK1; RH123; n = 3
Procedure: To evaluate the NHK1 influence on mitochondrial functionality, mitochondrial membrane potential variation (ΔΨm) was assayed in the presence of NHK1 peptide or HK1. ΔΨm is related to the ATP production by oxidative phosphorylation; therefore, it is considered an indication of good mitochondrial and cellular health. Using mitochondria-targeted fluorescent probes, we estimated in flow cytometry the rate of mitochondrial depolarization. NSC34-SOD1G93A cells shown a high level of depolarized mitochondria compared to NSC34-SOD1WT. […] Similarly to NHK1 peptide, the expression of the whole HK1 reduced the depolarized mitochondria of about 15% (Fig. 7C).
ΔΨm was measured using tetramethyl-rhodamine methyl ester (TMRM) or Rhodamine 123 (RH123) (Molecular Probes) according to the excitation/emission wavelength of the transfection reporter or of the transfected fluorescent protein used. Both probes accumulates in active mitochondria due to their positive charge, whereby the reduction of ΔΨm leads to the release of fluorescent probes. Transfected NSC34-SOD1WT and NSC34-SOD1G93A cells were washed with PBS and incubated for 30 min at 37 °C with Krebs Ringer Buffered Saline supplemented with either 200 nM TMRM or 0.1 μg/mL RH123 and 20 μM Verapamil (as a multi drug-resistant pump inhibitor) (Sigma). Cells were then harvested and immediately analyzed by flow cytometry. Cells were excited by an air-cooled argon 488 nm laser, reading the GFP fluorescence of HK1-GFP or RH123 fluorescence in FL1 log mode; TMRM and mtDsRED used as transfection reporter of NHK1 peptide were read on FL3 log mode. Only viable cells detected by reading the scattering indicated as FSC and SSC, were considered for our analysis. The threshold physiological value of ΔΨm was estimated by using cells exposed to 1 μM of the uncoupling agent FCCP as a negative control. Data reported are representative for three sets of independent experiments, each performed at least in triplicate and based on 20.000 events for each group. Data were statistical analyzed by chi-square test. A p < 0,001 was taken as significant.

| Molecule | effect on single channel VDAC1 conductance [1] | effect on voltage-dependence of VDAC1, triangular voltage ramps [1] | distribution between VDAC1-bound and -unbound fraction (recombinant human VDAC1 [2]) | distribution between mitochondrial pellet and supernatant [3] | change of fluorescence of labeled VDAC1 with increasing SOD1 concentration (recombinant human VDAC1 [4]) | decrease of SOD1 G93A bound to immobilized VDAC1 [5] | reduction of depolarized mitochondria (NSC34-SOD1G93A cells) |
| --- | --- | --- | --- | --- | --- | --- | --- |
| SOD1 G93A: Strep-tagged recombinant human ALS-linked SOD1 G93A mutant expressed in E. coli | promoted VDAC1 channel instability | perturbation of voltage-dependence | distributed between VDAC1-bound and -unbound fraction | co-precipitated in the mitochondrial pellet | produced fluorescence decrease | – | – |
| SOD1 WT: Strep-tagged recombinant human SOD1 wild type expressed in E. coli | did not modify the VDAC1 closed state | no modification in the usual VDAC1 pattern | almost exclusively in the unbound fraction | found exclusively in the supernatant | no fluorescence change | – | – |
| B1 | – | – | – | – | – | about 40% | about 15% |
